Measured values: patent US11845760B2, “PRMT5 inhibitors” (AMGEN INC., priority 2020, dated 2023)
Like-named read-outs stand apart in the source and are kept apart here.

What was measured:
[1] = test system: HCT116 WT cells; test: HCT116 WT cell line proliferation (CellTiter-Glo cell viability, 6 days); assay type: cell-based; settings: HCT116 WT (parent) cells, 6 days of treatment, CellTiter-Glo cell viability, read-out: HCT-116 WT IC50
How it was run: (§1)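 Isogenic HCT116 pair (parent and MTAP double-allele knockout) in RPMI 1640 + 10% FBS, exposed 6 days to compound: 8–9-point 1:3 dilutions from 1 or 10 μM top, or 22-point 1:2 dilutions from 10 or 50 μM top. CellTiter-Glo luminescence; IC50 from sigmoidal fit (Hill −1) or 4-parameter logistic.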

[2] = test system: HCT116 MTAP null cells; test: HCT116 MTAP null cell line proliferation (CellTiter-Glo cell viability, 6 days); assay type: cell-based; settings: HCT116 MTAP null cells, 6 days of treatment, CellTiter-Glo cell viability, read-out: HCT-116 MTAP null IC50
How it was run: as §1

SMILES	IC50 ([1]; Homo sapiens, HCT-116, 144 h) [nM]	IC50 ([2]; HCT116-MTAP null, 144 h) [nM]	IC50 [1] [nM]	IC50 [2] [nM]
CCOc1ccc([C@@H]2COC[C@H](C)N2C(=O)c2cc3c4c(c(N)nc3cn2)COC4)nn1 (racemic) [Example 320, (4-amino-1,3-dihydrofuro[3,4-c][1,7]naphthyridin-8-yl)((3R,5S)-3-(6-ethoxy-3-pyridazinyl)-5-methyl-4-morpholinyl)methanone and (4-amino-1,3-dihydrofuro[3,4-c][1,7]naphthyridin-8-yl)((3S,5R)-3-(6-ethoxy-3-pyridazinyl)-5-methyl-4-morpholinyl)methanone]	3680	101		
Nc1nc2cnc(C(=O)N3CCOC[C@@H]3c3cnc(C(F)(F)F)nc3)cc2c2c1COC2 (single isomer, unassigned) [Example 612]	> 10000	> 1000		
Cn1ncc2c(N)nc3cc(F)c(C(=O)N4CCOC[C@@H]4c4ccc(C(F)(F)C(F)(F)F)cc4)cc3c21 [Example 411, (4-amino-7-fluoro-1-methyl-1H-pyrazolo[4,3-c]quinolin-8-yl)((3S)-3-(4-(pentafluoroethyl)phenyl)-4-morpholinyl)methanone]	352	8		
Nc1nc2cc(Cl)c(C(=O)N3CCOCC3c3ccc(C(F)(F)F)cn3)cc2c2c1COC2 (racemic) [Example 344, (4-amino-7-chloro-1,3-dihydrofuro[3,4-c]quinolin-8-yl)((3R)-3-(5-(trifluoromethyl)-2-pyridinyl)-4-morpholinyl)methanone and (4-amino-7-chloro-1,3-dihydrofuro[3,4-c]quinolin-8-yl)((3S)-3-(5-(trifluoromethyl)-2-pyridinyl)-4-morpholinyl)methanone]	1410	58		
CCOc1ccc(C2COCCN2C(=O)c2cc3c4c(c(N)nc3cc2Cl)COC4)nn1 (racemic) [Example 391, (4-amino-7-chloro-1,3-dihydrofuro[3,4-c]quinolin-8-yl)((3R)-3-(6-ethoxy-3-pyridazinyl)-4-morpholinyl)methanone and (4-amino-7-chloro-1,3-dihydrofuro[3,4-c]quinolin-8-yl)((3S)-3-(6-ethoxy-3-pyridazinyl)-4-morpholinyl)methanone]	3390	73		
C[C@H]1COC[C@@H](c2ccc(C(F)(F)F)nc2)N1C(=O)c1cc2c3c(c(N)nc2cc1Cl)COC3 (racemic) [Example 302, (4-amino-7-chloro-1,3-dihydrofuro[3,4-c]quinolin-8-yl)((3R,5S)-3-methyl-5-(6-(trifluoromethyl)-3-pyridinyl)-4-morpholinyl)methanone and (4-amino-7-chloro-1,3-dihydrofuro[3,4-c]quinolin-8-yl)((3S,5R)-3-methyl-5-(6-(trifluoromethyl)-3-pyridinyl)-4-morpholinyl)methanone]	167	11		
Nc1nc2ccc(C(=O)N3CCOCC3c3cccc(F)c3)cc2c2c1COC2 (racemic) [Example 364, (4-amino-1,3-dihydrofuro[3,4-c]quinolin-8-yl)-[rac-(3S)-3-(3-fluorophenyl)morpholin-4-yl]methanone]	> 10000	3480		
Nc1nc2cnc(C(=O)N3CCOC[C@@H]3c3cc(C(F)(F)F)cs3)cc2c2c1COC2 (single isomer, unassigned) [Example 615]	3460	241		
C[C@H]1OCc2c1c(N)nc1ccc(C(=O)N3CCOC[C@@H]3c3ccc(S(F)(F)(F)(F)F)cc3)cc21 [Example 416, ((3R)-4-amino-3-methyl-1,3-dihydrofuro[3,4-c]quinolin-8-yl)((3S)-3-(4-(pentafluoro-lambda~6~-sulfanyl)phenyl)-4-morpholinyl)methanone]	867	33		
C[C@@H]1COC[C@H](c2ccc(OC(F)F)nn2)N1C(=O)c1ccc2nc(N)c3c(c2c1)COC3 (racemic) [Example 315, (4-amino-1,3-dihydrofuro[3,4-c]quinolin-8-yl)((3R,5S)-3-(6-(difluoromethoxy)-3-pyridazinyl)-5-methyl-4-morpholinyl)methanone and (4-amino-1,3-dihydrofuro[3,4-c]quinolin-8-yl)((3S,5R)-3-(6-(difluoromethoxy)-3-pyridazinyl)-5-methyl-4-morpholinyl)methanone]			4750	106
Nc1nc2ccc(C(=O)N3CCOCC3c3ccc(OC(F)F)cc3)cc2c2c1COC2 (racemic) [Example 496, (4-amino-1,3-dihydrofuro[3,4-c]quinolin-8-yl)((3R)-3-(4-(difluoromethoxy)phenyl)-4-morpholinyl)methanone and (4-amino-1,3-dihydrofuro[3,4-c]quinolin-8-yl)((3S)-3-(4-(difluoromethoxy)phenyl)-4-morpholinyl)methanone]	19800	486		
Nc1nc2ccc(C(=O)N3CCOC[C@H]3c3ccc(C(F)(F)F)cc3)cc2c2c1COC2 (single isomer, unassigned) [Example 455]	> 10000	> 1000		
C[C@@H]1OCc2c1c(N)nc1cnc(C(=O)N3CCOC[C@@H]3c3ccc(C(F)(F)F)cc3)cc21 (single isomer, unassigned) [Example 453]	40300	2180		
Cc1cc2nc(N)c3c(cnn3C)c2cc1C(=O)N1CCOC[C@@H]1c1ccc(C(F)(F)F)cc1 [Example 414, (4-amino-3,7-dimethyl-3H-pyrazolo[3,4-c]quinolin-8-yl)((3S)-3-(4-(trifluoromethyl)phenyl)-4-morpholinyl)methanone]	2800	56		
CCOc1ccc(C2COCCN2C(=O)c2cc3c4c(c(N)nc3cn2)[C@@H](C)OC4)nn1 (mixture of isomers) [Example 325, ((3R)-4-amino-3-methyl-1,3-dihydrofuro[3,4-c][1,7]naphthyridin-8-yl)((3R)-3-(6-ethoxy-3-pyridazinyl)-4-morpholinyl)methanone and ((3R)-4-amino-3-methyl-1,3-dihydrofuro[3,4-c][1,7]naphthyridin-8-yl)((3S)-3-(6-ethoxy-3-pyridazinyl)-4-morpholinyl)methanone]	> 10000	771		
COc1ccc([C@H]2COC[C@@H](C)N2C(=O)c2cc3c4c(c(N)nc3cn2)COC4)nn1 (relative stereo) [Example 491, (4-amino-1,3-dihydrofuro[3,4-c][1,7]naphthyridin-8-yl)((3S,5R)-3-(6-methoxypyridazin-3-yl)-5-methylmorpholino)methanone]	4380	108		
Nc1nc2cc(F)c(C(=O)N3CCOC[C@@H]3c3ncc(Br)cc3F)cc2c2c1COC2 (single isomer, unassigned) [Example 460]	1810	30		
Cn1ncc2c(N)nc3cc(Cl)c(C(=O)N4CC[C@H](c5ccc(C(F)(F)F)cc5)C4)cc3c21 [Example 443, (4-amino-7-chloro-1-methyl-1H-pyrazolo[4,3-c]quinolin-8-yl)((3R)-3-(4-(trifluoromethyl)phenyl)-1-pyrrolidinyl)methanone]	793	13		
C[C@H]1COC[C@@H](c2ccc(C(F)(F)F)cn2)N1C(=O)c1ccc2nc(N)c3c(c2c1)COC3 (single isomer, unassigned) [Example 582]	> 10000	> 1000		
Cn1ncc2c3cc(C(=O)N4CCOC[C@@H]4c4ccc(OC(F)F)nn4)c(F)cc3nc(N)c21 [Example 557, (4-amino-7-fluoro-3-methyl-3H-pyrazolo[3,4-c]quinolin-8-yl)((3S)-3-(6-(difluoromethoxy)-3-pyridazinyl)-4-morpholinyl)methanone]	37100	697		
CC1OCc2c1c(N)nc1ccc(C(=O)N3C(C)COCC3c3ccc(C(F)(F)F)cc3F)cc21 (mixture of isomers) [Example 331, ((3R)-4-amino-3-methyl-1,3-dihydrofuro[3,4-c]quinolin-8-yl)((3R,5S)-3-(2-fluoro-4-(trifluoromethyl)phenyl)-5-methyl-4-morpholinyl)methanone and ((3R)-4-amino-3-methyl-1,3-dihydrofuro[3,4-c]quinolin-8-yl)((3S,5R)-3-(2-fluoro-4-(trifluoromethyl)phenyl)-5-methyl-4-morpholinyl)methanone]			897	35
Nc1nc2cc(F)c(C(=O)N3CC(O)(c4ccc(C(F)(F)F)cc4)C3)cc2c2c1COC2 [Example 429, (4-amino-7-fluoro-1,3-dihydrofuro[3,4-c]quinolin-8-yl)(3-hydroxy-3-(4-(trifluoromethyl)phenyl)-1-azetidinyl)methanone]	20600	382		
C[C@H]1OCc2c1c(N)nc1cnc(C(=O)N3CCOC[C@H]3c3ccc(C(F)(F)F)cn3)cc21 (racemic) [Example 357, ((3R)-4-amino-3-methyl-1,3-dihydrofuro[3,4-c][1,7]naphthyridin-8-yl)((3R)-3-(5-(trifluoromethyl)-2-pyridinyl)-4-morpholinyl)methanone and ((3R)-4-amino-3-methyl-1,3-dihydrofuro[3,4-c][1,7]naphthyridin-8-yl)((3S)-3-(5-(trifluoromethyl)-2-pyridinyl)-4-morpholinyl)methanone]	9390	175		
Nc1nc2cnc(C(=O)N3CCOC[C@@H]3c3cc(Cl)c(Cl)s3)cc2c2c1COC2 (single isomer, unassigned) [Example 618]	> 10000	300		
Nc1nc2ccc(C(=O)N3CCOC[C@H]3c3cccc(Cl)c3)cc2c2c1COC2 (single isomer, unassigned) [Example 578]	> 10000	> 1000		
